How the values were obtained:
Assay in all cases: biochemical
Design in all cases: DiscoverX KINOMEscan scanMAX competition binding panel, single concentration, percent of control; remaining binding: dose or concentration left out as unconfirmed
Settings in all cases: KINOMEscan binding, percent of control; read-out: Table S4_SCANMAX REPORT - related to Fig. 1 / Percent Control
[1] = molecular target: T1, ABL1(F317I)-phosphorylated (Homo sapiens, UniProt P00519, F317I)
T1 construct: phosphorylated

[2] = molecular target: RET(M918T) (Homo sapiens, UniProt P07949, M918T)
[3] = molecular target: T2, NIK (Homo sapiens, UniProt Q99558)
T2 construct: gene MAP3K14

[4] = molecular target: NEK11 (Homo sapiens, UniProt Q8NG66)
[5] = molecular target: ACVR1B (Homo sapiens, UniProt P36896)
[6] = molecular target: WNK4 (Homo sapiens, UniProt Q96J92)
[7] = molecular target: T3, RSK2(Kin.Dom.2-C-terminal) (Homo sapiens, UniProt P51812)
T3 construct: gene RPS6KA3; Kin.Dom.2-C-terminal

[8] = molecular target: TESK1 (Homo sapiens, UniProt Q15569)
[9] = molecular target: T4, IKK-epsilon (Homo sapiens, UniProt Q14164)
T4 construct: gene IKBKE

[10] = molecular target: MARK3 (Homo sapiens, UniProt P27448)
[11] = molecular target: CSNK1G3 (Homo sapiens, UniProt Q9Y6M4)
[12] = molecular target: T5, DRAK2 (Homo sapiens, UniProt O94768)
T5 construct: gene STK17B

[13] = molecular target: WNK3 (Homo sapiens, UniProt Q9BYP7)
[14] = molecular target: BUB1 (Homo sapiens, UniProt O43683)
[15] = molecular target: RIPK2 (Homo sapiens, UniProt O43353)
[16] = molecular target: MAK (Homo sapiens, UniProt P20794)
[17] = molecular target: MET(M1250T) (Homo sapiens, UniProt P08581, M1250T)
[18] = molecular target: BRAF(V600E) (Homo sapiens, UniProt P15056, V600E)

ACVR1B, sequence (P36896 whole entry): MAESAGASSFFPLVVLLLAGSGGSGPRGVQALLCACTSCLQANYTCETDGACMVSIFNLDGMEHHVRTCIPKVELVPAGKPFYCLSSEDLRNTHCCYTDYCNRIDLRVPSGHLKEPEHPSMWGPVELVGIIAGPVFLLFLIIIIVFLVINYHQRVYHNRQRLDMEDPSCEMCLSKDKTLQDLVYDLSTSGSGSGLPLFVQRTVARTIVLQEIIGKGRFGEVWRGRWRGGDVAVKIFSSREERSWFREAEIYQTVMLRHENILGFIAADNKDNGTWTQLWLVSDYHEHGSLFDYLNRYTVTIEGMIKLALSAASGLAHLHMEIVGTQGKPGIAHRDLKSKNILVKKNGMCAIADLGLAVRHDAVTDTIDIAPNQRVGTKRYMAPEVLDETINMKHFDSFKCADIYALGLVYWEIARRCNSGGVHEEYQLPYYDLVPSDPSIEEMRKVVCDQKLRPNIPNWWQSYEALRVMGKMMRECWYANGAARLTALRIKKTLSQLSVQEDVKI
RIPK2, sequence (O43353 whole entry): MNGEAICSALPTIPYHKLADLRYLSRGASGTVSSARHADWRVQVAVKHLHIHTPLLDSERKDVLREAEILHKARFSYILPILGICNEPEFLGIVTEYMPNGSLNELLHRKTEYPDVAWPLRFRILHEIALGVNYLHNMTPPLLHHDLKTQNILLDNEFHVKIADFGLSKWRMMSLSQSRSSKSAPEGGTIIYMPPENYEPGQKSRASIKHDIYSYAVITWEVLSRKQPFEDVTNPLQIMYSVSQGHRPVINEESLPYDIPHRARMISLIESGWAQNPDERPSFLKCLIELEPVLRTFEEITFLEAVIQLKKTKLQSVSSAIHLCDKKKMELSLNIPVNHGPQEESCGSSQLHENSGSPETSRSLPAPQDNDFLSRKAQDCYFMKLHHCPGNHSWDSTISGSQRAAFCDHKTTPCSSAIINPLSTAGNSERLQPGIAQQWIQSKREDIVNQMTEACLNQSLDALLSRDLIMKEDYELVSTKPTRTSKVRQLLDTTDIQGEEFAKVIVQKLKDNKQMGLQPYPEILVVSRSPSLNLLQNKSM
TESK1, sequence (Q15569 whole entry): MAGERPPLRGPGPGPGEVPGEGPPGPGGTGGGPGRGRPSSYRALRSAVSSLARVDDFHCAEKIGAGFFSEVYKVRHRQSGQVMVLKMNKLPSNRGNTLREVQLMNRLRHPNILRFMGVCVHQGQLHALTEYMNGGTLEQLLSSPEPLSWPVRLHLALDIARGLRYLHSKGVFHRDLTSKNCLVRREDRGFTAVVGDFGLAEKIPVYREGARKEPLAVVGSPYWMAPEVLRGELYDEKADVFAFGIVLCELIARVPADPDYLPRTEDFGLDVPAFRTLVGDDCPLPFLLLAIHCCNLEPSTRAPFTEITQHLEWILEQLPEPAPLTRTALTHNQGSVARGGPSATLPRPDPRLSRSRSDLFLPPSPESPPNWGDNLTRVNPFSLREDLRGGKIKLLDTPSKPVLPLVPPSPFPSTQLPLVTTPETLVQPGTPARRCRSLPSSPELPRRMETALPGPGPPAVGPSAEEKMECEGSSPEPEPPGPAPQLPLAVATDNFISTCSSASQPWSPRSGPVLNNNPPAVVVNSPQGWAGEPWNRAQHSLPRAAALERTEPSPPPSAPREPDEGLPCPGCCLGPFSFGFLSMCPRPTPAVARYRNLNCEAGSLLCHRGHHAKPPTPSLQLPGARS
MAK, sequence (P20794 whole entry): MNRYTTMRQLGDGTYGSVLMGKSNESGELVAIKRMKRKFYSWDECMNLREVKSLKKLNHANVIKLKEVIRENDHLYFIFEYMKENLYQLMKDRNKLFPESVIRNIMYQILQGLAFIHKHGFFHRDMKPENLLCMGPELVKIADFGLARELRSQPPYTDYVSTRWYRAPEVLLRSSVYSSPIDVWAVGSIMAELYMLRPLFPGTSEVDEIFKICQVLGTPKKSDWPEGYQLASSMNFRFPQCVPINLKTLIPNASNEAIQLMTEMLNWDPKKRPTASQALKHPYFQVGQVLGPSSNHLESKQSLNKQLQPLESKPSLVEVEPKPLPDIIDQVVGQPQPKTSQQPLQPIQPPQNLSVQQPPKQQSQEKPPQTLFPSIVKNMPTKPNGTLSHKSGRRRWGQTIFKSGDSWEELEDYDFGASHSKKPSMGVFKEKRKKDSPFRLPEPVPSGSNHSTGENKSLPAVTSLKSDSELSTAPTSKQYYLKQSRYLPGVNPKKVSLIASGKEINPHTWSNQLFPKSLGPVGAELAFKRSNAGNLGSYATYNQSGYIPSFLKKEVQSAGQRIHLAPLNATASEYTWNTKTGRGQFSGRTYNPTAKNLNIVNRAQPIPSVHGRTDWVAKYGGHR
T3 sequence (P51812 whole entry): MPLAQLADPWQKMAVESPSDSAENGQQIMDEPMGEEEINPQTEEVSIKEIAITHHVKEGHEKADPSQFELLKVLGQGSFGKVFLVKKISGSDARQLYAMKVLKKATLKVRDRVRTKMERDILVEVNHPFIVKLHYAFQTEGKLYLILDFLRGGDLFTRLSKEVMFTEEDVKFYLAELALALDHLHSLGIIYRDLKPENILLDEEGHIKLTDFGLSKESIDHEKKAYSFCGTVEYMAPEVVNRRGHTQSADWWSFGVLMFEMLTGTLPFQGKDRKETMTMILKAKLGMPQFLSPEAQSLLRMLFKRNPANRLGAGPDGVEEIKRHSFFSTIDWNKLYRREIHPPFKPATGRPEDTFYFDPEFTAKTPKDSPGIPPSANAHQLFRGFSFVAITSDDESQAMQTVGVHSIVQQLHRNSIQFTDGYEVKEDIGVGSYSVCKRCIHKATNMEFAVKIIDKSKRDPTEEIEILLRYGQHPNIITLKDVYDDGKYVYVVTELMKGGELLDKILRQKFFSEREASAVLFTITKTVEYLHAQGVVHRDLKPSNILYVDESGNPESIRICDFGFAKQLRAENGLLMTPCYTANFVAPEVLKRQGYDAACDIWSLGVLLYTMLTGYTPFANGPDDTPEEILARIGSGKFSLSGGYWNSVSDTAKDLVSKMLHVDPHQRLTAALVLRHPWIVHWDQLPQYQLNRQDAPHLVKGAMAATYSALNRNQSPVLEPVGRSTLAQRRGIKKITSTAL
MET(M1250T), sequence (P08581 whole entry M1250T): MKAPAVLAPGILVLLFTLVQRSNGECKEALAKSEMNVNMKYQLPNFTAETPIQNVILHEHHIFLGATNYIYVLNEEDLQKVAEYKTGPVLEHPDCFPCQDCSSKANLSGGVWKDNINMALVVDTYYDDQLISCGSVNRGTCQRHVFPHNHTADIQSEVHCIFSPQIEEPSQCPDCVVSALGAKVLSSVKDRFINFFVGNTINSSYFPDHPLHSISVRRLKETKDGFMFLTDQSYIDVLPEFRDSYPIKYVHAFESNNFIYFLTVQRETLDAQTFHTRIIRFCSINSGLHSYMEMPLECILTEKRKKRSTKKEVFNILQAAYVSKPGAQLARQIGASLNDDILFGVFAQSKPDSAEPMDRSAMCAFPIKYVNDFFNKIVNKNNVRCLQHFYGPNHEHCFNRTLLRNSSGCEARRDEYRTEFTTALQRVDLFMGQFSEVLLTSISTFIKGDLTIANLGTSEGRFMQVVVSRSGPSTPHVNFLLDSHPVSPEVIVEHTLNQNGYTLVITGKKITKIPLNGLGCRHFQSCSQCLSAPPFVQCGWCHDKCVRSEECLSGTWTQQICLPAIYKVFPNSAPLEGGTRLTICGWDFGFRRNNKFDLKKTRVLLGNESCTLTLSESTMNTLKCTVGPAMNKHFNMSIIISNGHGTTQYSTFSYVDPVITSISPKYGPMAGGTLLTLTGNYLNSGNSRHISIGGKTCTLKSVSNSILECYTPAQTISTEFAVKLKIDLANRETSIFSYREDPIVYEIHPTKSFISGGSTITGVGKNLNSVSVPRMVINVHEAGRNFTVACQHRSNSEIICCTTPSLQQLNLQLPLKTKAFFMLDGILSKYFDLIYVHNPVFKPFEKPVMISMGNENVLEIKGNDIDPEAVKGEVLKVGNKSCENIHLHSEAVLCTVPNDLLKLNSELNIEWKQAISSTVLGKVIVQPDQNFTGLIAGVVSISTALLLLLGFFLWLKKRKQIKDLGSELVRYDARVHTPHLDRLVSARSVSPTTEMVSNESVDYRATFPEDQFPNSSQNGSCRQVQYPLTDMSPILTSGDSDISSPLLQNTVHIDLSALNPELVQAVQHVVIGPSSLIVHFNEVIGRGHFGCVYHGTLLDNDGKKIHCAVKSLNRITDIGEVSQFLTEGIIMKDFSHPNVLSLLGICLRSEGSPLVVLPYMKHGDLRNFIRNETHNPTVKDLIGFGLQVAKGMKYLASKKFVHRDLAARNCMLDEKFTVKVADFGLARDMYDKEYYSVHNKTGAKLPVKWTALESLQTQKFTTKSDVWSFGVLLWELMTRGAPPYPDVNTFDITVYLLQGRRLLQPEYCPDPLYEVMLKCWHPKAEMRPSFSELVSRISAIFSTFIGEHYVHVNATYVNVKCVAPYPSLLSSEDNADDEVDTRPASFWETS
CSNK1G3, sequence (Q9Y6M4 whole entry): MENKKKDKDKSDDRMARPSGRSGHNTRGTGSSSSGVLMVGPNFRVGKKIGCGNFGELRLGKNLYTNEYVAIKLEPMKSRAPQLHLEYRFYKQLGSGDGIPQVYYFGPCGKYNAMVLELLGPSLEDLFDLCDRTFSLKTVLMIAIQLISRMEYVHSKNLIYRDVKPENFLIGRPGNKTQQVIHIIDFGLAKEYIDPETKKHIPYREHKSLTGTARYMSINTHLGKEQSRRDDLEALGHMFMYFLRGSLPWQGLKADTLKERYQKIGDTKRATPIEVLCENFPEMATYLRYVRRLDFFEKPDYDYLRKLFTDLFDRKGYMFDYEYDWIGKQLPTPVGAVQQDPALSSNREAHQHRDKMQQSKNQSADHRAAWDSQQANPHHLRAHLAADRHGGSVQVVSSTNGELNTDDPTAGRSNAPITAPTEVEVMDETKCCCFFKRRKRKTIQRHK

SMILES: c1ccc2c(c1)Sc1ccccc1N2CCN1CCOCC1 [J54]
- remaining binding [1]: 100%
- remaining binding [2]: 97%
- remaining binding [3]: 100%
- remaining binding [4]: 100%
- remaining binding [5]: 88%
- remaining binding [6]: 91%
- remaining binding [7]: 89%
- remaining binding [8]: 100%
- remaining binding [9]: 75%
- remaining binding [10]: 100%
- remaining binding [11]: 100%
- remaining binding [12]: 83%
- remaining binding [13]: 98%
- remaining binding [14]: 79%
- remaining binding [15]: 100%
- remaining binding [16]: 31%
- remaining binding [17]: 67%
- remaining binding [18]: 100%

— PMC7486443, “Generation of Phenothiazine with Potent Anti-TLK1 Activity for Prostate Cancer Therapy” (iScience, 2020)
